Here are results for 26 molecules from patent US6242494A, “Substituted β-amino acid inhibitors of methionine aminopeptidase-2” (Abbott Laboratories, priority 1999, dated 2001).

As a reminder, the IC50 is the concentration that inhibits the measured activity by half.

Where a name gives a salt, the structure may show the parent alone. Read-outs that look alike come from different tables or passages of the source.

The target of the test is T1, methionine aminopeptidase-2 (MetAP2) (Homo sapiens, UniProt P50579).
T1 construct: made in house; host or cells: insect cells, baculovirus system (secreted, purified from culture supernatant)
T1 sequence (P50579 whole entry): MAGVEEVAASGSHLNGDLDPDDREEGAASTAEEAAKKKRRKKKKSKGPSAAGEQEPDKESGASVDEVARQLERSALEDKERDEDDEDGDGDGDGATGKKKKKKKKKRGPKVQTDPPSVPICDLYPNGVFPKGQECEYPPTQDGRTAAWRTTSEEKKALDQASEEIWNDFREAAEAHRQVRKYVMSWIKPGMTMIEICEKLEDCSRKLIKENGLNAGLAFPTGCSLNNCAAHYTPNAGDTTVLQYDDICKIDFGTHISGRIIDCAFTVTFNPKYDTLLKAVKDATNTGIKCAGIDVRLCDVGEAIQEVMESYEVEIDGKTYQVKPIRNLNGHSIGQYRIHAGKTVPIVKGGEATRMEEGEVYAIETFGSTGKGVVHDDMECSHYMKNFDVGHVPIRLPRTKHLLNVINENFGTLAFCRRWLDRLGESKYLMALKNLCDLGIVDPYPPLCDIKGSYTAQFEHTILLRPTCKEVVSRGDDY
As to the kind of experiment: Inhibition of MetAP2 enzyme activity (96-well, Met-Ala-Ser substrate, L-amino acid oxidase/peroxidase/ortho-dianisidine, 450 nm). Type of test: biochemical. The settings on record: pH 7.4, Met-Ala-Ser substrate, 20 minutes. Here is the method: The ability of compounds of the present invention to inhibit methionine aminopeptidase 2 was evaluated using the following assay.
Assays for MetAP2 enzyme activity and MetAP2 inhibition were performed in 96-well microtiter plates. Compounds to be tested for MetAP2 inhibition were dissolved in dimethyl-sulfoxide at 10 mM and diluted ten-fold in assay buffer ([…], pH 7.4, 100 mM NaCl). Ten microliters of solution of each compound to be tested for inhibition were introduced into each cell of the plate, with each compound being tested in triplicate.
The absorbence at 450 nanometers was measured every 20 seconds over a period of twenty minutes using an automaic plate reader (Molecular Devices, CA, USA). The Vmax in mOD/min, calculated for each well was used to represent MetAP2 activity. The IC50 for each inhibitor was obtained by plotting the remaining MetAP2 activity versus inhibitor concentration.

Setting [1] is: IC50, recombinant MetAP2 4 μg/mL.

For the molecule “(((2RS,3R)-3-amino-4cyclohexyl-2-hydroxybutanoyl)amino)(2,5-dimethoxybenzyl)chloronium hydrochloride [Example 163]”, the IC50 (recombinant MetAP2 4 μg/mL, read-out: IC50) is 0.48 µM.

In the case of `CC(Cc1cccc(C(F)(F)F)c1)NC(=O)C(O)[C@H](N)CC1CCCCC1` (mixture of isomers) [Example 210, (2RS,3R)-3-amino-4-cyclohexyl-2-hydroxy-N-(1-methyl-2-(3-(trifluoromethyl)phenyl)ethyl)butanamide Hydrochloride], the IC50 under setting [1] was 2.3 µM. Same read-out and setting: then `CCOC(=O)[C@H](CF)NC(=O)C(O)[C@H](N)CC1CCCCC1` (stereo partly drawn) [Example 135, ethyl (2RS,3R,2'R)-2-((3-amino-4-cyclohexyl-2-hydroxybutanoyl)amino)-3-fluoropropanoate trifluoroacetate], with 3.2 µM; and `C[C@H](COC(=O)c1ccccc1)NC(=O)C(O)[C@H](N)CC1CCCCC1` (some centres unmarked) [Example 50, hydrochloride], with 3.7 µM. The same measure, in the same setting: under `COc1ccc(C(C)(C)C)cc1NC(=O)C(O)[C@H](N)CC1CCCCC1` (mixture of isomers) [Example 182, (2RS,3R)-3-amino-N-(5-(tert-butyl)-2-methoxyphenyl)-4-cyclohexyl-2-hydroxybutanamide hydrochloride] stands 8 µM.

As for `C[C@H](NC(=O)C(O)[C@H](N)CC1CCCCC1)c1nc(C(=O)O)cs1` (stereo partly drawn) [Example 75, (2RS,3R)-3-amino-2-hydroxy-4-cyclohexyl)butanoyl-(4-carboxyl-2-(1'amino)ethyl thizole hydrochloride], under setting [1], the IC50 amounted to 9.4 µM. On the same count and under the same terms, then `N[C@H](CC1CCCCC1)C(O)C(=O)NCc1ccc(C(F)(F)F)cc1` (mixture of isomers) [Example 158, (2RS,3R)-3-amino-4-cyclohexyl-2-hydroxy-N-(4-(trifluoromethyl)benzyl)butanamide], with 2.8 µM. Still for that read-out and setting: then `C[C@@H](c1cccc2ccccc12)N(C)C(=O)C(O)[C@H](N)CC1CCCCC1` (mixture of isomers) [Example 219, (2RS,3R)-3-amino-4-cyclohexyl-2-hydroxy-N-methyl-N-((1S)-1-(1-naphthyl)ethyl)butanamide Hydrochloride], with 1.8 µM; and `N[C@H](CC1CCCCC1)C(O)C(=O)Nc1ccc(N2CCOCC2)cc1` (mixture of isomers) [Example 215, (2RS,3R)-3-amino-4-cyclohexyl-2-hydroxy-N-(4-(4-morpholinyl)phenyl)butanamide Hydrochloride], with 1.3 µM. As to `CC(NC(=O)C(O)[C@H](N)CC1CCCCC1)c1cccc2ccccc12` (stereo partly drawn) [Example 101, (2RS,3R,1'RS)-3-Amino-4-cyclohexyl-2-hydroxy-N-(1-(1-naphthyl)ethyl)butanamide Hydrochloride], the IC50 under setting [1] came out at 0.31 µM. Still for that read-out and setting: then `N[C@H](CC1CCCCC1)C(O)C(=O)NCCc1ccccc1Cl` (mixture of isomers) [Example 108, (2RS,3R)-3-Amino-N-(2-chlorophenethyl)-4-cyclohexyl-2-hydroxybutanamide Hydrochloride], with 0.63 µM. As for `COc1ccc2[nH]cc(CCNC(=O)[C@H](C)NC(=O)C(O)[C@H](N)CC3CCCCC3)c2c1` (stereo partly drawn) [Example 65, ((2RS,3R)-3-amiono-2-hydroxy-4-cyclohexyl)butanoyl-L-alanyl-(5-methoxytryptamine)amide hydrochloride], under “recombinant MetAP2 4 μg/mL”, the 50% inhibitory concentration (IC50) turned out to be 5.6 µM. In the case of `C[C@H](NC(=O)C(O)[C@H](N)CC1CCCCC1)C(=O)OCc1ccccc1` (stereo partly drawn) [Example 53, (2RS,3R,1'S)-N-((1-benzyloxycarbonylethyl)-3-amino-2hydroxy-$-cyclohexyl)butanamide hydrochloride], the half-inhibitory concentration (IC50) under setting [1] came to 1.8 µM. Still for that read-out and setting: then `CCSCC[C@@H](NCC(=O)OC)C(O)C(=O)NCCCCc1ccccc1` (stereo partly drawn) [Example 44, (2RS,3R)-N-((Phenylbutyryl)-3-methoxycarbonylmethylamino-2-hydroxy-4-ethylthio)pentanamide hydrochloride], with 13 µM.

For `CCOC(=O)CCCNC(=O)C(O)[C@H](N)CCSCC` (mixture of isomers) [Example 16, (2RS,3R)-N-(3-(carboethoxy)propyl)-3-amino-2-hydroxy-5-(ethylthio)pentanamide hydrochloride], the IC50 under setting [1] was 0.78 µM. As for `Cc1ccc(CCNC(=O)C(O)[C@H](N)CC2CCCCC2)cc1` (mixture of isomers) [Example 194, (2RS,3R)-3-amino-4-cyclohexyl-2-hydroxy-N-(4-methylphenethyl)butanamide hydrochloride], the IC50 under setting [1] turned out to be 1.4 µM. Still for that read-out and setting: under `CSCC[C@@H](N)C(O)C(=O)NCCc1cccnc1` (mixture of isomers) [Example 32, (2RS,3R)-N-(2-(3-pyridyl)ethyl)-3-amino-2-hydroxy-5-(methylthio)pentanamide] stands 1.4 µM; under `CCC(=O)OC[C@H](C)NC(=O)C(O)[C@H](N)CC1CCCCC1` (stereo partly drawn) [Example 48, (2RS,3R,2'S)-N-((2-propionyloxypropyl)-3-amino-b2-hydroxy-$-cyclohexyl)butanamide hydrochloride], 1.5 µM. On the same count and under the same terms, under `N[C@H](CC1CCCCC1)C(O)C(=O)NCCC(c1ccccc1)c1ccccc1` (mixture of isomers) [Example 216, (2RS,3R)-3-amino-4-cyclohexyl-N-(3,3-diphenylpropyl)-2-hydroxybutanamide Hydrochloride] stands 1.8 µM; under `Cc1cccc(CNC(=O)C(O)[C@H](N)CC2CCCCC2)c1` (mixture of isomers) [Example 191, (2RS,3R)-3-amino-4-cyclohexyl-2hydroxy-N-(3-methylbenzyl)butanamide hydrochloride], 2.5 µM; under `N[C@H](CC1CCCCC1)C(O)C(=O)NCCCCNC(=O)OCc1ccccc1` (stereo partly drawn) [Example 77, (2RS,3R)-3-amino-2-hydroxy-4-cyclohexyl)butanoyl-(4-benzloxycarbonylamino)butylamide hydrochloride], 3.3 µM.

For `CCSCC[C@@H](N)C(O)C(=O)NCCC(=O)OCc1ccccc1` (stereo partly drawn) [Example 15, (2RS,3R)-N-(3-(carbobenzyloxy)ethyl)-3-amino-2-hydroxy-5-(ethylthio)pentanamide hydrochloride], under setting [1], the IC50 is 0.72 µM. On the same count and under the same terms, under `N[C@H](CC1CCCCC1)C(O)C(=O)NC1CCCCCC1` (mixture of isomers) [Example 204, (2RS,3R)-3-amino-N-cycloheptyl-4-cyclohexyl-2-hydroxybutanamide Hydrochloride] stands 3.8 µM. The same measure, in the same setting: then `CC(C)(C)c1ccc(COC(=O)[C@@H](CO)NC(=O)C(O)[C@H](N)CC2CCCCC2)cc1` (stereo partly drawn) [Example 137, 4-(tert-butyl)benzyl (2RS,3R,2'R)-2-((3-amino-4-cyclohexyl-2-hydroxybutanoyl)amino-3-hydroxypropanoate trifluoroacetate], with 8.4 µM; and `N[C@H](CC1CCCCC1)C(O)C(=O)NCCCCNS(=O)(=O)c1cccc(C(F)(F)F)c1` (mixture of isomers) [Example 84, (2RS,3R)-3-amino-4-cyclohexyl-2-hydroxy-N-(4-(((3-(trifluoromethyl)phenyl)sulfonyl)amino)butyl)butanamide hydrochloride], with 3.3 µM; and `CCSCC[C@@H](N)C(O)C(=O)NCCCCCNS(=O)(=O)c1cccc2c(N(C)C)cccc12` (some centres unmarked) [Example 79, dihydrochloride], with 0.1 µM.
